Reference: patent US10947271B2, “Antibacterial agents” (THE UNIVERSITY OF QUEENSLAND, priority 2014, dated 2021)

Legend:
[1] = system: Streptococcus pneumoniae MDR ATCC 700677; assay: MIC assay, S. pneumoniae MDR ATCC 700677; assay type: cell-based; settings: 24 h incubation, visual reading
Summary of the method: (§1)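 MHB broth microdilution, twofold series, compounds 8–0.003 μg/ml; mid-log inoculum 5×10e5 CFU/mL; 37° C, 24 h; MIC read visually as lowest concentration without growth.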

[2] = system: Enterococcus faecium MDR Van A ATCC 51559; assay: MIC assay, E. faecium MDR Van A ATCC 51559; assay type: cell-based; settings: 24 h incubation, visual reading
Summary of the method: as §1

[3] = Stability of compounds in human plasma
Description: Briefly test compounds (20 μM) were prepared from a 1 mM stock solution. The human plasma sample (200 μl) was diluted with 160 μl phosphate-buffer saline (PBS, pH 7.4) to a concentration of 50% v/v before use. Solutions were then vortexed and placed on a 37° C. shaker and shaken gently for 10 minutes. 40 μl of the test compounds were then added to the plasma sample and vortexed. For the reaction time t=0 hour, 50 μl of sample was immediately transferred into an eppendorf tube and quenched with 150 μl cold acetonitrile. The remaining plasma solution was incubated and shaken at 37° C. Other samples were collected at time points of 0, 1, 3, 6 and 24 hours whereby 50 μl aliquots were removed and quenched with 150 μl cold acetonitrile. All samples were placed in a 4° C. fridge for 10 minutes then centrifuged at 3000 rpm for 15 minutes. The supernatant (100 μl) was transferred to a glass vial insert for LCMS analysis. The percentage of test compounds remaining at the individual time points relative to sample at time point 0 hour were reported.
Plasma: Human Plasma (Pooled Normal Human Plasma Heparin Anticoagulant 50 mL (IPLA-2 N-04 lot IR09-1001, originally from Innovative Research and imported by BioCore).
All compounds in 100% water (40 μL in 400 μL assay volume equivalent […])
Compounds: 40 μL of the vancomycin derivative solution was added to 160 μL of PBS (pH 7.4) respectively in an Eppendorf tube. 600 μL of cold acetonitrile was added, the tube vortexed and transferred to a glass vial for LC-MS analysis.
Eucatropine: 200 μL of plasma and 190 μL of buffer were vortexed, shaken at 37° C. for 10 minutes. 10 μL of eucatropine solution was then added and the tube vortexed. A 50 μL aliquot was immediately transferred to an Eppendorf tube, 150 μL of cold acetonitrile added and the tube transferred to a 4° C. fridge for 10 minutes. The remaining plasma solution was then transferred to the incubator and shaken at 37° C. The tube was retrieved from the fridge, centrifuged at 3000 rpm for 15 min and 100 μL of supernatant transferred to a glass vial insert for LC-MS analysis. 50 μL aliquots were processed as above at 1, […], 3, 6 and 24 hours and 5 μL was injected into triple quad MS system for analysis. Vancomycin derivatives: 200 μL of plasma and 160 μL of buffer were vortexed and shaken at 37° C. for 10 minutes. 40 μL of compound was then added and the sample was processed as above.

[4] = system: Staphylococcus aureus MRSA ATCC 43300; assay: MIC assay, S. aureus MRSA ATCC 43300; assay type: cell-based; settings: 24 h incubation, visual reading
Summary of the method: as §1

[5] = 0 h (reference time point), 50% human plasma/PBS pH 7.4, 37° C.
[6] = 1 h, 50% human plasma/PBS pH 7.4, 37° C.
[7] = 3 h, 50% human plasma/PBS pH 7.4, 37° C.
[8] = 6 h, 50% human plasma/PBS pH 7.4, 37° C.
[9] = 24 h, 50% human plasma/PBS pH 7.4, 37° C.

Row | Compound | Minimum Inhibitory Concentration (MIC) S. pneumoniae ATCC 700677 [1] | Minimum Inhibitory Concentration (MIC) E. faecium ATCC51559 [2] | % compound remaining after incubation in 50% human plasma [3, 5] [%] | % compound remaining after incubation in 50% human plasma [3, 6] [%] | % compound remaining after incubation in 50% human plasma [3, 7] [%] | % compound remaining after incubation in 50% human plasma [3, 8] [%] | % compound remaining after incubation in 50% human plasma [3, 9] [%] | Minimum Inhibitory Concentration (MIC) Staph. aureus ATCC43300 [4] | % compound remaining after incubation in 50% human plasma ([3]; human, plasma, 0 h, pH 7.4) [%] | % compound remaining after incubation in 50% human plasma ([3]; human, plasma, 1 h, pH 7.4) [%] | % compound remaining after incubation in 50% human plasma ([3]; human, plasma, 3 h, pH 7.4) [%] | % compound remaining after incubation in 50% human plasma ([3]; human, plasma, 6 h, pH 7.4) [%] | % compound remaining after incubation in 50% human plasma ([3]; human, plasma, 24 h, pH 7.4) [%]
1 | CCCCCCCCCCC(=O)N[C@@H](CCCCN)C(=O)N[C@@H](CCCCN)C(=O)N[C@@H](CCCCN)C(=O)N[C@@H](CCCCNC(=O)[C@H]1NC(=O)[C@H]2NC(=O)[C@H](NC(=O)[C@@H]3NC(=O)[C@H](CC(N)=O)NC(=O)[C@H](NC(=O)[C@@H](CC(C)C)NC)[C@H](O)c4ccc(c(Cl)c4)Oc4cc3cc(c4O[C@@H]3O[C@H](CO)[C@@H](O)[C@H](O)[C@H]3O[C@H]3C[C@](C)(N)[C@H](O)[C@H](C)O3)Oc3ccc(cc3Cl)[C@H]2O)c2ccc(O)c(c2)-c2c(O)cc(O)cc21)C(=O)O [MCC_000229, nC10CO-KKK-K(Vanc)-OH] | xxx (xxx = 0.1-<1) | xxxx (xxxx = 0.01-<0.1) | 100 | 87 | 87 | 83 | 93 | xxxx (xxxx = 0.01-<0.1) | – | – | – | – | –
2 | CCCCCCCCCCC(=O)NCC(=O)N[C@@H](CO)C(=O)N[C@@H](CCCCN)C(=O)N[C@@H](CCCCN)C(=O)N[C@@H](CCCCN)C(=O)N[C@@H](CCCCNC(=O)[C@H]1NC(=O)[C@H]2NC(=O)[C@H](NC(=O)[C@@H]3NC(=O)[C@H](CC(N)=O)NC(=O)[C@H](NC(=O)[C@@H](CC(C)C)NC)[C@H](O)c4ccc(c(Cl)c4)Oc4cc3cc(c4O[C@@H]3O[C@H](CO)[C@@H](O)[C@H](O)[C@H]3O[C@H]3C[C@](C)(N)[C@H](O)[C@H](C)O3)Oc3ccc(cc3Cl)[C@H]2O)c2ccc(O)c(c2)-c2c(O)cc(O)cc21)C(=O)O [MCC_000082, nC10CO-GSKKK-K(Vanc)-OH] | – | – | 100 | 136 | 252 | 241 | 73 | – | – | – | – | – | –
3 | CCCCCCCCCCCCCC(=O)N[C@@H](CCCCN)C(=O)N[C@@H](CCCCN)C(=O)N[C@@H](CCCCN)C(=O)N[C@@H](CCCCNC(=O)[C@H]1NC(=O)[C@H]2NC(=O)[C@H](NC(=O)[C@@H]3NC(=O)[C@H](CC(N)=O)NC(=O)[C@H](NC(=O)[C@@H](CC(C)C)NC)[C@H](O)c4ccc(c(Cl)c4)Oc4cc3cc(c4O[C@@H]3O[C@H](CO)[C@@H](O)[C@H](O)[C@H]3O[C@H]3C[C@](C)(N)[C@H](O)[C@H](C)O3)Oc3ccc(cc3Cl)[C@H]2O)c2ccc(O)c(c2)-c2c(O)cc(O)cc21)C(=O)O [MCC_000223, nC13CO-KKK-K(Vanc)-OH] | xxxxx (xxxxx = <0.01) | xxx (xxx = 0.1-<1) | 100 | 174 | 164 | 170 | 139 | xxxxx (xxxxx = <0.01) | – | – | – | – | –
4 | CCCCCCCCCC(=O)NC(CCCCN(C)C)C(=O)NCCCNC(=O)C1NC(=O)C2NC(=O)C(NC(=O)C3NC(=O)C(CC(N)=O)NC(=O)C(NC(=O)C(CC(C)C)NC)C(O)c4ccc(c(Cl)c4)Oc4cc3cc(c4OC3OC(CO)C(O)C(O)C3OC3CC(C)(N)C(O)C(C)O3)Oc3ccc(cc3Cl)C2O)c2ccc(O)c(c2)-c2c(O)cc(O)cc21 (stereo not shown) [MCC_007339] | xxxx (xxxx = 0.01-<0.1) | xx (xx = 1-4) | – | – | – | – | – | xxxx (xxxx = 0.01-<0.1) | – | – | – | – | –

Continued, values first:

Row | Minimum Inhibitory Concentration (MIC) S. pneumoniae ATCC 700677 [1] | Minimum Inhibitory Concentration (MIC) E. faecium ATCC51559 [2] | % compound remaining after incubation in 50% human plasma [3, 5] [%] | % compound remaining after incubation in 50% human plasma [3, 6] [%] | % compound remaining after incubation in 50% human plasma [3, 7] [%] | % compound remaining after incubation in 50% human plasma [3, 8] [%] | % compound remaining after incubation in 50% human plasma [3, 9] [%] | Minimum Inhibitory Concentration (MIC) Staph. aureus ATCC43300 [4] | % compound remaining after incubation in 50% human plasma ([3]; human, plasma, 0 h, pH 7.4) [%] | % compound remaining after incubation in 50% human plasma ([3]; human, plasma, 1 h, pH 7.4) [%] | % compound remaining after incubation in 50% human plasma ([3]; human, plasma, 3 h, pH 7.4) [%] | % compound remaining after incubation in 50% human plasma ([3]; human, plasma, 6 h, pH 7.4) [%] | % compound remaining after incubation in 50% human plasma ([3]; human, plasma, 24 h, pH 7.4) [%] | Compound
5 | xxxxx (xxxxx = <0.01) | xx (xx = 1-4) | 100 | 107 | – | 103 | 99 | xxxxx (xxxxx = <0.01) | – | – | – | – | – | CNC(CC(C)C)C(=O)NC1C(=O)NC(CC(N)=O)C(=O)NC2C(=O)NC3C(=O)NC(C(=O)NC(C(=O)NCCCCC(NC(=O)C(CCCCN)NC(=O)C(CCCCN)NC(=O)C(CCCCNC(=O)c4ccc(Oc5ccccc5)cc4)NC(=O)c4ccc(Oc5ccccc5)cc4)C(=O)O)c4cc(O)cc(O)c4-c4cc3ccc4O)C(O)c3ccc(c(Cl)c3)Oc3cc2cc(c3OC2OC(CO)C(O)C(O)C2OC2CC(C)(N)C(O)C(C)O2)Oc2ccc(cc2Cl)C1O (stereo not shown) [MCC_000217, (4-PhO-PhCO)-K(4-PhO-PhCO)-KK-K(Vanc)-OH]
6 | xxxxx (xxxxx = <0.01) | xxx (xxx = 0.1-<1) | 100 | 98 | 137 | 85 | 87 | xxxxx (xxxxx = <0.01) | – | – | – | – | – | CCCCCCCCCCCCCC(=O)N[C@@H](CCCCN)C(=O)N[C@@H](CCCCN)C(=O)NCC(=O)NCCNC(=O)[C@H]1NC(=O)[C@H]2NC(=O)[C@H](NC(=O)[C@@H]3NC(=O)[C@H](CC(N)=O)NC(=O)[C@H](NC(=O)[C@@H](CC(C)C)NC)[C@H](O)c4ccc(c(Cl)c4)Oc4cc3cc(c4O[C@@H]3O[C@H](CO)[C@@H](O)[C@H](O)[C@H]3O[C@H]3C[C@](C)(N)[C@H](O)[C@H](C)O3)Oc3ccc(cc3Cl)[C@H]2O)c2ccc(O)c(c2)-c2c(O)cc(O)cc21 [MCC_000226, nC13CO-KKG-NHC2NH-Vanc]
7 | xxxxx (xxxxx = <0.01) | xx (xx = 1-4) | 100 | 102 | 102 | 93 | 94 | xxxxx (xxxxx = <0.01) | – | – | – | – | – | CCCCCCCCCCCCCC(=O)N[C@H](CCCCN)C(=O)N[C@H](CCCCN)C(=O)NCC(=O)NCCNC(=O)[C@H]1NC(=O)[C@H]2NC(=O)[C@H](NC(=O)[C@@H]3NC(=O)[C@H](CC(N)=O)NC(=O)[C@H](NC(=O)[C@@H](CC(C)C)NC)[C@H](O)c4ccc(c(Cl)c4)Oc4cc3cc(c4O[C@@H]3O[C@H](CO)[C@@H](O)[C@H](O)[C@H]3O[C@H]3C[C@](C)(N)[C@H](O)[C@H](C)O3)Oc3ccc(cc3Cl)[C@H]2O)c2ccc(O)c(c2)-c2c(O)cc(O)cc21 [MCC_000227, nC13CO-kkG-NHC2NH-Vanc]
8 | – | – | – | – | – | – | – | – | 100 | 77 | 64 | 51 | 3 | nC13CO-KKK-C(SS-nEt-NH-Vanc)-OH [MCC_000535, reference compound]
